Entries after “also recorded” stand apart in the source; their conditions may differ.
Legend:
[1] = system: K562-Lucena 1; test: MTT cytotoxicity assay on resistant leukemic cells, K562-Lucena 1; assay type: cell-based, human; conditions: for IC50: Homo sapiens, K562-Lucena 1, MTT, 72 h, multidrug-resistant
Method: K562 (human erythroleukemic) and its multidrug-resistant counterpart, K562-Lucena 1, were obtained from the Tumor Immunology Laboratory (Federal University of Rio de Janeiro) (Rumjanek et al., 2001) and were cultured as recommended by Daflon-Yunes et al., 2013 [93, 106, 107].
CL-07, DL-01 and DL-08 compounds were evaluated for cell viability on K562 and K562-Lucena 1 cells using the colorimetric tetrazolium method (Mosmann, 1983). Cells were plated in 96-well plates. Compounds were dissolved in 1% (v/v) DMSO and RPMI-1640 medium (Sigma-Aldrich) in five serial concentrations from 1 to 50 µg/mL and were later added to each well and incubated for 72 h at 37 °C in a 5% CO2 humidified environment. As a positive control, 1 µM staurosporine was used. Then, the cells were treated with 20 µL of 5 mg/mL 3-(4,5-dimethylthiazol-2yl)-2,5-diphenyltetrazolium bromide solution (MTT solution in phosphate buffer solution) for 3 h. At the end of treatment, absorbances at 562 nm were measured using an iMark™ Microplate Absorbance Reader (iMark™, Hercules, CA, USA). Half-inhibitory concentration (IC50) was obtained by nonlinear regression with 95% confidence intervals (CI 95%) using GraphPad Prism software (Intuitive Software for Science; San Diego, CA, USA).

[2] = system: HepG2 (human hepatocellular carcinoma); test: Alamar blue cytotoxicity assay, HepG2; assay type: cell-based; conditions: 72 h incubation
Method: (§1) The in vitro cytotoxic activity of the compounds (Table 1) was evaluated against cancer cell lines HCT116 (human colon carcinoma), HepG2 (human hepatocellular carcinoma), B16F10 (murine melanoma carcinoma) and non-cancerous cell line MRC-5 (human lung fibroblast) using the Alamar blue assay after 72 h of incubation; doxorubicin (DOX) was used as a positive control. The unsubstituted derivatives on the acridine cores were encoded as CL, and the disubstituted derivatives as DL.
(§2) The human cancer cell lines HCT116 (colon carcinoma) and HepG2 (hepatocellular carcinoma), the mouse cancer cell line B16-F10 (melanoma), and the non-cancerous human cell line MRC-5 (lung fibroblast) were obtained from the American Type Culture Collection (ATCC, Manassas, VA, USA) and cultured according to the ATCC animal cell culture guide. All cell lines tested negative for mycoplasma using a mycoplasma stain kit.
(§3) Cell viability was measured using the Alamar blue assay, as previously described. Cells were seeded in 96-well plates for all experiments. The compounds were dissolved in dimethyl sulfoxide (DMSO, Sigma-Aldrich) and added to each well in eight serial concentrations ranging from 0.19 to 25 μg/mL. As a positive control, doxorubicin was used. After 72 h of treatment, 20 μL of resazurin (0.312 mg/mL) was added to each well. A SpectraMax 190 Micro-plate Reader was used to measure absorbances at 570 and 595 nm (Molecular Devices, Sunnyvale, CA, USA). Nonlinear regression with 95% confidence intervals (CI 95%) was used to calculate the inhibitory concentration of 50% (IC50) using GraphPad Prism software (Intuitive Software for Science; San Diego, CA, USA).

[3] = system: CT DNA–EtBr; test: Fluorescence competition with EtBr; assay type: binding, calf; conditions: for Ksv (10^3) (M^−1): [EtBr] = 20 μmol L^−1, [DNA] = 100 μmol L^−1; for Quenching (%): [EtBr] = 20 μmol L^−1, [DNA] = 100 μmol L^−1, [compound] = 0–100 μmol L^−1
From the text: EtBr is a weak fluorophore in an aqueous solvent, which has its fluorescence enhanced when it binds to DNA by the intercalative mode. The study of fluorescence quenching with EtBr is commonly used to assess the ability of compounds to interact with DNA by interfering with the fluorescence of the EtBr–DNA interaction (ESI, Figures S58 and S59). The EtBr–DNA complex in the presence and absence of CL-07 is shown in Figure 6, and the comparison of the quenching extent between studied compounds in terms of F/F0 vs. [compound] is illustrated in Figure 7.
The fluorescence titration results were analyzed using the Stern–Volmer equation [101], and the Ksv values of CT DNA–EtBr in the presence of the compounds calculated the slope of the graphs. The fluorescence spectra of the EtBr or CT DNA–EtBr compounds were obtained by excitation at 526 nm and scanning the emission from 530 to 650 nm. Solutions containing CT DNA–EtBr (20 μM:100 μM) were analyzed in the presence of several derivative concentrations (10, 20, 40, 60, 80 and 100 μM) in Tris-HCl buffer (0.1 M, pH 7.4) (ESI, Figures S58 and S59):F0/F = 1 + Ksv[Q] F0 and F represent the steady-state fluorescence intensities of CT DNA–EtBr in the absence and presence of the compounds, respectively. [Q] refers to the concentration of derivatives as a quencher. Ksv indicates the Stern–Volmer quenching constant.

[4] = system: MRC-5 (human lung fibroblast); test: Alamar blue cytotoxicity assay, non-cancerous MRC-5; assay type: cell-based; conditions: MRC5, 72 h incubation, non-cancerous cell
Method: as §1, §2, §3

[5] = biological target: T1, recombinant human topoisomerase IIα (p170) (Homo sapiens, UniProt P11388); test: Human topoisomerase IIα inhibition assay (pUC19 plasmid relaxation); assay type: biochemical; conditions: for inhibition of Topo IIα enzymatic activity (in words) / % of enzyme inhibition: 100 µM; for % of enzyme inhibition / inhibition at 100 µM: densitometry, relative to positive control mAMSA, '-' = no inhibition; for inhibition at 100 µM: read-out: % of enzyme inhibition
T1 construct: purchased Sigma-Aldrich
From the text: Several studies have shown the ability of acridines to inhibit topoisomerases, being considered the main mechanism responsible for the antiproliferative activities of this scaffold. The possibility of the new acridine derivatives to inhibit Topo IIα in its biological function of DNA double-strand relaxation was investigated in this work. This enzymatic inhibition can be accompanied by the presence of a supercoiled or relaxed DNA band, performed with the pUC19 plasmid, as shown in Figure 2. In this study, mAMSA was used as a positive inhibition control.
For testing the ability of Topo IIα inhibition, the compounds were evaluated in the DNA plasmid relaxation assay. This test consists of evaluating the Topo IIα enzyme activity in the absence and presence of the compound, followed by electrophoresis analysis, as previously described by Almeida et al. (2016). Briefly, 100 ng pUC19 DNA plasmid (Sigma-Aldrich) and 4.0 units of recombinant human (p170) topoisomerase II (Sigma-Aldrich) in relaxation buffer without or with tested compounds were incubated for 30 min at 37 °C. The tested concentrations were […], and amsacrine (mAMSA) was used as a positive control. Reactions were terminated with 1% SDS and digested with proteinase K. Then, the reaction products were analyzed by electrophoresis gel stained with ethidium bromide and photographed under UV light. Quantitative evaluation (% of enzyme inhibition by compounds about the positive control mAMSA) of the gel bands corresponding to supercoiled DNA was performed by densitometry using image-processing software (Scion Image, version Beta 4.0.2.) according to Gouveia et al. (2018).
Figure 2 Effects of mAMSA and its acridine derivatives on topoisomerase IIα activity. Effects of derivatives and positive control on the inhibition of human topoisomerase IIα. Native supercoiled pUC19 was incubated for 30 min at 37 °C with […] of human Topo IIα in the absence (lane 2) or presence of ligands at a concentration 100 μM. Inhibition of Topo IIα-induced DNA relaxation by mAMSA (lane 3) was used as a positive control. DNA samples were run on an agarose gel followed by ethidium bromide staining.

T1 sequence (P11388 whole entry): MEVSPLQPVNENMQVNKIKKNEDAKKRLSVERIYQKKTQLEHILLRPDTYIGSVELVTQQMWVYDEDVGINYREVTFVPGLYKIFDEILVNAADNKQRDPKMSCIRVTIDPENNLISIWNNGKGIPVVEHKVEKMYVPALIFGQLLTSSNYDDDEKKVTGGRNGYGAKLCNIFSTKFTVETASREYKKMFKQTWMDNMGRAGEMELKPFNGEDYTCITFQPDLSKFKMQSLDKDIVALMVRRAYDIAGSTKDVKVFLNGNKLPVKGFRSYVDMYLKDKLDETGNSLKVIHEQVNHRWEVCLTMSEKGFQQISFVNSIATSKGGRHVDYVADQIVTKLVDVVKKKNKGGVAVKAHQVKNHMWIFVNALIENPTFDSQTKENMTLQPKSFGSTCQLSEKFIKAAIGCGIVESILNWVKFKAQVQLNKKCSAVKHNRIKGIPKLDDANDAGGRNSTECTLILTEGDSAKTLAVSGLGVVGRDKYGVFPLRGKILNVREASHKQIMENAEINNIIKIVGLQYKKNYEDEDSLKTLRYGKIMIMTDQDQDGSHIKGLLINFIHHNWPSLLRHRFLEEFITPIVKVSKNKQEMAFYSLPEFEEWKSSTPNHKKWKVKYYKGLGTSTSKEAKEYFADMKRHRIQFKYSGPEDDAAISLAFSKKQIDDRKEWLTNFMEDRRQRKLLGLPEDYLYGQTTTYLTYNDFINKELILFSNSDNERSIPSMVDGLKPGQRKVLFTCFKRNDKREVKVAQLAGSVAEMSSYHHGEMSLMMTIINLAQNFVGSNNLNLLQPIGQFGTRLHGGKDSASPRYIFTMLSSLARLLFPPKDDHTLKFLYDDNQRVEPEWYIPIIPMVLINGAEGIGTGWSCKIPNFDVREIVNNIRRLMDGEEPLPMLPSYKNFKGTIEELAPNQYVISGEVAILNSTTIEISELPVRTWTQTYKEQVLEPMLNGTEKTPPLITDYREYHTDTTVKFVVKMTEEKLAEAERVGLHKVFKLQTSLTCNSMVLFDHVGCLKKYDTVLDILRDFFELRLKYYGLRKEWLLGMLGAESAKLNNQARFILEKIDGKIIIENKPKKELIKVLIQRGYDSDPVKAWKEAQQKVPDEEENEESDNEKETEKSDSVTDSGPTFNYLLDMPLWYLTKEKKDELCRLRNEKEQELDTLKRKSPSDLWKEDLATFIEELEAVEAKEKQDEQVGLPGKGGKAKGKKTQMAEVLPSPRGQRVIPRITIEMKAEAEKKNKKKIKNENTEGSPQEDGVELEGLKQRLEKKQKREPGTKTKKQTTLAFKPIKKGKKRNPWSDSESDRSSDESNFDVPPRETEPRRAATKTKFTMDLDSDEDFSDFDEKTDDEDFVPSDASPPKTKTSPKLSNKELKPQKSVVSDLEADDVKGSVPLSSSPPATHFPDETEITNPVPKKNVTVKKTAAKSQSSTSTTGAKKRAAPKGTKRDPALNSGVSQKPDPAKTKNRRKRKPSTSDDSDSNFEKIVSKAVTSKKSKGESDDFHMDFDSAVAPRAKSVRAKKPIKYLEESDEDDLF

| Compound | IC50 [1] [µM] | IC50 [2] [µM] | Ksv (10^3) (M^−1) ([3]; Stern–Volmer constant) | Ksv ([3]; Stern–Volmer constant, abstract value) [M⁻¹] | Quenching (%) [3] [%] | IC50 [4] [µM] | inhibition of Topo IIα enzymatic activity (in words) [5] | selectivity K562-Lucena 1 versus MRC-5 ([1]; more selective than MRC-5) [times] | % of enzyme inhibition [5] [%] | inhibition at 100 µM [5] [%] |
| --- | --- | --- | --- | --- | --- | --- | --- | --- | --- | --- |
| Oc1ccc(/C=N/NC(=S)Nc2c3ccccc3nc3ccccc23)cc1 [CL-07, (E)-N-(acridin-9-yl)-2-(4-hydroxybenzylidene)hydrazine-1-carbothioamide] | 43.4 | 50.7 | 2.6 10^3 M^−1 | 2600 | 21.71 | 43.4 | did not show inhibition capacity; also recorded: could not inhibit Topo IIα | – | – | – |
| COc1ccc2nc3cc(Cl)ccc3c(NC(=S)N/N=C/c3ccccc3)c2c1 [DL-01, (E)-2-benzylidene-N-(6-chloro-2-methoxyacridin-9-yl)hydrazine-1-carbothioamide] | 16.5 | 21.9 | 1.8 10^3 M^−1 | – | 15.61 | 37 | able to inhibit the enzymatic activity | 2 | 77 | > 74 |
| COc1ccc2nc3cc(Cl)ccc3c(NC(=S)N/N=C/c3cccc(O)c3)c2c1 [DL-08, (E)-N-(6-chloro-2-methoxyacridin-9-yl)-2-(3-hydroxybenzylidene)hydrazine-1-carbothioamide] | 17.1 | 21.3 | 2.5 10^3 M^−1 | – | 20.83 | 14.4 | able to inhibit the enzymatic activity | – | 79 | > 74 |

Source: paper PMC9506480, “Synthesis and Evaluation of Antiproliferative Activity, Topoisomerase IIα Inhibition, DNA Binding and Non-Clinical Toxicity of New Acridine–Thiosemicarbazone Derivatives” (Pharmaceuticals, 2022)
